Experimental data published in patent US20220008373A1 (priority 2020, published 2022).
Entries after “also recorded” stand apart in the source; their conditions may differ.

Tested on: pseudovirus carrying the Spike protein of SARS-CoV-2
Format: cell-based

Row | Compound | inhibition of pseudovirus infection (attachment and entry)
1 | CN1CCN(c2ccc(CNC(=O)c3ccno3)cc2)CC1 [SSAA09E2] | dose-dependent inhibition of pseudovirus infection; also recorded: effective at blocking infection
2 | CC(C)C[C@H](N[C@@H](Cc1cncn1Cc1cc(Cl)cc(Cl)c1)C(=O)O)C(=O)O [MLN-4760] | No inhibition of viral infection; also recorded: no ability to block the entrance to the pseudovirus
